{"source": "patent US8394398B2", "about": "(Abbott Laboratories, priority 1997, dated 2013)", "key": {"[1]": {"test": "Phase 1 single escalating intravenous dose study, safety and pharmacokinetics", "format": "in vivo, human", "conditions": "for C5 / concentration at 5 min: concentration at 5 minutes; for concentration at 5 min: male, human, whole blood, read-out: C5", "method": "In the present, first-time-in-man study, the safety and pharmacokinetics of zotarolimus were investigated following intravenous bolus administration of zotarolimus over a 100 to 900 μg dose range. The intravenous bolus dose administration would mimic the most rapid unexpected release of zotarolimus from drug-coated stents in vivo.\nThis was a Phase 1, single escalating dose, double-blind, randomized, placebo-controlled, single-center study. Sixty (60) adult healthy males were divided into 5 IV dose groups of 100, 300, 500, 700, and 900 μg.\nSubjects were randomly assigned to receive a single intravenous dose of zotarolimus or a matching intravenous placebo under fasting conditions, as shown in the dosing scheme shown in Table 9.\nHigher doses were administered after evaluating the safety data from the preceding lower dose groups. The treatment groups were separated by at least 7 days. For safety reasons, each treatment group was divided into two cohorts of six subjects and the doses of the two cohorts of a group were separated by at least 1 day.\nDoses were administered as IV bolus over 3 minutes, with 8 subjects. Four subjects received zotarolimus and 4 subjects received placebo in each dose group. Blood was sampled for 168 hours and concentrations of zotarolimus measured using LC-MS/MS with a LOQ of 0.20 ng/mL\nSeven (7)-mL blood samples were collected by venipuncture into evacuated collection tubes including edetic acid (EDTA) prior to dosing (0 hour) and at 0.083 (5 min), 0.25, 0.5, 1, 2, 4, 8, 12, 16, 24, 36, 48, 72, 96, 120, 144, and 168 hours after dosing on Study Day 1.\nBlood concentrations of zotarolimus were determined using a validated liquid/liquid extraction HPLC tandem mass spectrometric method LC-MS/MS). […] AU calibration curves had coefficient of determination (r^2) values greater than or equal to 0.9923.\nSafety was evaluated based on adverse event, physical examination, vital signs, ECG, injection site and laboratory tests assessments.\nPharmacokinetic parameter values of zotarolimus were estimated using noncompartmental methods.\nTo investigate the questions of dose proportionality and linear pharmacokinetics, an analysis of covariance (ANCOVA) was performed. Subjects were classified by dose level, and body weight was a covariate. The variables analyzed included β, Vdβ, dose-normalized C5, and logarithms of dose-normalized AUC0-last and dose-normalized AUC0-inf. The primary test of the hypothesis of invariance with dose was a test on dose-level effects with good power for a monotonic function of dose. In addition, the highest and lowest dose levels were compared within the framework of the ANCOVA."}, "[2]": {"test_system": "human coronary artery smooth muscle cells (hCaSMC)", "test": "cytokine production by TNFα-treated human coronary artery smooth muscle cells (ELISA)", "format": "cell-based", "conditions": "hCaSMC, TNFα (5 ng/ml), 24 hours", "method": "Experiments were performed to determine the effects of zotarolimus, sirolimus and dexamethasone on the production of TNFα, IL-6 and MCP-1 by activated human monocytes In addition to monocytes and macrophages two other key cell types are involved in the etiology of restenosis, arterial smooth muscle and endothelial cells. These cells are activated and produce cytokines in response to TNFα. […] The activation of cytokine production by human coronary artery smooth muscle and endothelial cells following TNFα treatment was determined by measuring interleukine-8 (IL-8), MCP-1 and IL-6 production. As shown by the results of the experiments described below, the ability of these compounds to inhibit the production of cytokines supports their use in combination as anti-restenotic agents since these cytokines play a role in the development of restenosis. […] After 24 hours, the supernatants were carefully collected and TNFα, IL-6 and MCP-1 levels determined by ELISA. Primary cultures of human coronary artery endothelial and smooth muscle cells were obtained from Cambrex and maintained as described by the vendor. […] After 24 hours the supernatants were removed and replaced with media containing TNFα (5 ng/ml) in the presence and absence of various concentrations of zotarolimus, dexamethasone or sirolimus. The cells were incubated for 24 hours and the supernatants carefully removed and frozen until measurement. Cytokine levels were measured in the supernatants by sandwich ELISA."}, "[3]": {"test_system": "human coronary artery endothelial cells (hCaEC)", "test": "3H-thymidine uptake proliferation assay, hCaEC", "format": "cell-based", "conditions": "Homo sapiens, Endothelial cell, 3 h; read-out: hCaEC IC50 Mean ± SEM"}, "[4]": {"conditions": "100 μg single IV bolus, healthy males, blood"}, "[5]": {"conditions": "300 μg single IV bolus, healthy males, blood"}, "[6]": {"conditions": "500 μg single IV bolus, healthy males, blood"}, "[7]": {"conditions": "700 μg single IV bolus, healthy males, blood"}, "[8]": {"conditions": "900 μg single IV bolus, healthy males, blood"}}, "note": "Like-named read-outs stand apart in the source and are kept apart here.", "data": [{"smiles": "CO[C@H]1C[C@@H]2CC[C@@H](C)[C@@](O)(O2)C(=O)C(=O)N2CCCC[C@H]2C(=O)O[C@H]([C@H](C)C[C@@H]2CC[C@H](n3cnnn3)[C@H](OC)C2)CC(=O)[C@H](C)/C=C(\\C)[C@@H](O)[C@@H](OC)C(=O)[C@H](C)C[C@H](C)/C=C/C=C/C=C/1C", "note": "[zotarolimus]", "values": [{"measurement": "C5", "setting": "[1]; [4]", "value": 13.48, "unit": "ng/mL"}, {"measurement": "C5", "setting": "[1]; [5]", "value": 36.71, "unit": "ng/mL"}, {"measurement": "C5/Dose", "setting": "[1]; [6]", "value": "0.11 ± 0.0005", "unit": "ng/mL/µg"}, {"measurement": "β (elimination rate constant)", "setting": "[1]; [6]", "value": "0.017 ± 0.003", "unit": "h⁻¹"}, {"measurement": "CL", "setting": "[1]; [7]", "value": 3.18, "unit": "L/h"}, {"measurement": "C5", "setting": "[1]; [7]", "value": 88.73, "unit": "ng/mL"}, {"measurement": "C5", "setting": "[1]; [8]", "value": 110.78, "unit": "ng/mL"}, {"measurement": "concentration at 5 min", "setting": "[1]; [4]", "value": "13.5 ± 2.87", "unit": "ng/mL"}, {"measurement": "concentration at 5 min", "setting": "[1]; [5]", "value": "36.7 ± 9.82", "unit": "ng/mL"}, {"measurement": "concentration at 5 min", "setting": "[1]; [7]", "value": "88.7 ± 5", "unit": "ng/mL"}, {"measurement": "concentration at 5 min", "setting": "[1]; [8]", "value": "111 ± 15.9", "unit": "ng/mL"}, {"measurement": "tolerability", "setting": "[1]; single IV doses of 100 to 900 μg, healthy males", "value": "well tolerated at all doses"}, {"measurement": "most common treatment-emergent adverse events", "setting": "[1]; single IV doses of 100 to 900 μg, reported by two or more subjects in any one treatment group", "value": "injection site reaction and pain"}, {"measurement": "dose proportionality of pharmacokinetics", "setting": "[1]; with respect to C5 and AUC0-inf, IV", "value": "dose-proportional over the 100-900 μg dose range"}, {"measurement": "Maximal Inhibitory Activity, IL-6", "setting": "[2]", "value": "− (− indicates maximal inhibitory activity less than 50% of control)"}, {"measurement": "Maximal Inhibitory Activity, Il-8", "setting": "[2]", "value": "− (− indicates maximal inhibitory activity less than 50% of control)"}, {"measurement": "Maximal Inhibitory Activity, MCP-1", "setting": "[2]", "value": "− (− indicates maximal inhibitory activity less than 50% of control)"}, {"measurement": "IC50", "setting": "[3]", "value": "3.2 ± 0.5", "unit": "nM"}]}]}
